Reference: patent publication US9944613B2, “Fumagillol spirocyclic compounds and fused bicyclic compounds and methods of making and using same” (Zafgen, Inc., priority 2015, dated 2018)
pIC50: −log10 of the molar value. Where a name gives a salt, the structure may show the parent alone. Read-outs that look alike come from different tables or passages of the source.

Key:
[1] = tested on: rat DIO model (Sprague Dawley rats on high fat diet); test: 11 day rat DIO model, weight loss vs. vehicle; type: in vivo; details: Rattus norvegicus, 264 h, 0.3 mpk sc once a day for 11 days
Excerpt: The objective of this study design is to investigate the efficacy of disclosed compounds in an 11 day rat DIO model used to screen compounds for pharmacologic efficacy on endpoints related to obesity and metabolism. Effects on body weight, food intake, hematology and blood chemistries were the primary readouts of this study design. Male Sprague Dawley rats, approximately 8 weeks of age, were ordered from a certified vendor and housed on irradiated corncob bedding in micro-isolator cages, on a 12-hour light-dark cycle (0700-1900) at 68-74° F. and 30-70% humidity. Rats were fed Research Diets D12451 (45% High Fat) and provided water ad libitum. Rats were received and housed in the facility for at least two or three weeks prior to start of test article administration. On Day −4 or −3, rats were randomized into study groups based on body weight and body weights were continued to be recorded daily for the duration of the study. Daily food intake was assessed starting on Study Day −2 by weighing the hopper including the food to avoid loss of food in transfer.
(§1) Compounds were formulated into a 100% DMSO stock (at 9 mg/mL) prior to the start, and further diluted into the target working concentration using the vehicle of 10% DMSO in water. Prior to test article administration, starting on Day −3 a dosing acclimation occured with all animals receiving a subcutaneous injection of vehicle (10% DMSO) only for 3 days. Starting on Day 1, test compounds or vehicle were administered based on individual body weight, subcutaneously, once a day for 11 days. All animals were sacrificed on Day 11, approximately 2 hours following the final dosing on Day 11. After sacrifice, whole blood was collected and analyzed for hematology and blood chemistry parameters.
(§2) Compounds were tested for weight loss vs. vehicle at 0.3 and 1.0 mpk sc (mg per kg animal weight delivered subcutaneously), and the results are shown in Table 2 below.

[2] = tested on: Diet Induced Obese (DIO) C57BL/6 mice; test: 10 day DIO mouse model, weight loss vs. vehicle; type: in vivo; details: 240 h, 0.3 mpk sc once a day for 10 days
Excerpt: The objective of this study design was to investigate the efficacy of disclosed compounds in a 10 day DIO mouse model. Effects on body weight, food intake, hematology and blood chemistry were the primary readouts of this study design. Male, Diet Induced Obese (DIO) C57BL/6 mice, 19-21 weeks of age (13-15 weeks on high fat diet) were ordered from a certified vendor and upon receipt were housed on irradiated corncob bedding in micro-isolator cages on a 12-hour light-dark cycle (0700-1900) at 68-74° F. and 30-70% humidity. Mice were fed Research Diets D12492 (60% Kcal fat, 20% Kcal carbohydrate and 20% protein) and provided water ad libitum. DIO mice were received and housed in the facility for approximately two weeks prior to the start of test article administration. On Day −4 or −3, mice were randomized into study groups based on body weight and body weights were continued to be recorded daily for the duration of the study. Daily food intake was assessed starting on Study Day −2 by weighing of the food with hopper together to avoid loss of food in transfer.
as §1, with “for 10” for “for 11”, “All mice” for “All animals”, “11, 24” for “11, approximately 2”, “Day 10.” for “Day 11.”
as §2

[3] = target: T1, recombinant human MetAP2 (Homo sapiens, UniProt P50579); test: Inhibition of recombinant human MetAP2 activity (MAS peptide / amino acid oxidase / Amplex assay); type: biochemical
T1 construct: Flag; made in house
Protocol: Compounds are tested for their capacity to inhibit recombinant human MetAP2 activity using the following assay.
Flag tagged Human recombinant MetAP2 expressed and isolated for use as the enzyme source. 10 mM stock solutions of compounds were prepared in 100% DMSO and further diluted in 100% DMSO required concentration to 1 mM stocks. The stock compound solutions and DMSO vehicle controls were diluted to target final compound concentrations using assay buffer to a final concentration of 50 mM HEPES containing 100 mM NaCl, pH adjusted to 7.5. The MAS peptide was formulated to a 7.5 mM stock in distilled water and prior to use further diluted 1:4. […] 40 μl of enzyme was mixed with 100 μl of MnCl2 then further diluted in assay buffer to a final concentration of 16 μg/ml. To test for compound effect on MetAP2 enzyme activity, 5 μl of test compound, 10 μl of MAS substrate/amino acid oxidase mixture, 10 μl of MetAP2 was added to test wells in a 384 well black plate with blank wells containing no enzyme, replaced with 10 μl of assay buffer. All compounds were tested in duplicate on two occasions on the same day.
The plate was sealed with a TopSeal A cover and mixed briefly on an orbital mixer at 900 rpm. The plate was incubated for a further 25 minutes at 25° C. A 5× stock of Amplex buffer was prepared (0.25M sodium phosphate, pH 7.4) and stored at 4° C. When preparing for use the stock was diluted with distilled water. […] Horse radish peroxidase was diluted in […] of Amplex buffer, 100 μl of this was combined with 50 μl of Amplex Ultrared in […] of 1× Amplex buffer to generate sufficient detection reagent for a 384 well plate. 25 μl detection reagent was added to each well of the test plate, which was re-sealed and mixed briefly on an orbital shaker. The plate was transferred to an Envision Multi-label reader and RFU measured corresponding to excitation 531 nm and emission 595 nm. At the end of the MetAP2 incubation 25 μl Amplex/HRP mixture per well was added and the plate read plate on a plate reader.

[4] = Flag tagged human recombinant MetAP2, 25 minutes at 25° C., read-out: MetAP2 IC50

T1 sequence (P50579 whole entry): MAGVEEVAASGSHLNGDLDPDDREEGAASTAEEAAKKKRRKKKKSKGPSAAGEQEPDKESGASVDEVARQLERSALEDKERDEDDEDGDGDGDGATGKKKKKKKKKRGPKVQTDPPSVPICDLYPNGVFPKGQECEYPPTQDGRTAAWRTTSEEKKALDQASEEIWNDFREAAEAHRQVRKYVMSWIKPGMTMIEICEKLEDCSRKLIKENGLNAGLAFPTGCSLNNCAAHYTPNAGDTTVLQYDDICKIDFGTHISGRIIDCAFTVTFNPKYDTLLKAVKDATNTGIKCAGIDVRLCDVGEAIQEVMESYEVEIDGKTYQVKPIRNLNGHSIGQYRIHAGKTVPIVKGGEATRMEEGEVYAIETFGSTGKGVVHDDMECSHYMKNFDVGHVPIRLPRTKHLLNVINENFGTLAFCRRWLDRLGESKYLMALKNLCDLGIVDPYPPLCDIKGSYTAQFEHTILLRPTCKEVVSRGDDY

Structure (SMILES)	inhibition in vivo at 0.3 mg/kg [1]	inhibition in vivo at 0.3 mg/kg [2]	pIC50 [3, 4]	pIC50 [3]
CO[C@@H]1[C@H](OC(=O)N2C[C@H]3COC[C@H]3C2)CC[C@]2(CO2)[C@H]1[C@@]1(C)O[C@@H]1CC=C(C)C [Example 13, (3aR,6aS)-((3R,4S,5S,6R)-5-methoxy-4-((2R,3R)-2-methyl-3-(3-methylbut-2-enyl)oxiran-2-yl)-1-oxaspiro[2.5]octan-6-yl) tetrahydro-1H-furo[3,4-c]pyrrole-5(3H)-carboxylate]	3.1%	16.9%		
CO[C@@H]1[C@H](OC(=O)N2CC3(CN(C)C3)C2)CC[C@]2(CO2)[C@H]1[C@@]1(C)O[C@@H]1CC=C(C)C [Example 12, (3R,4S,5S,6R)-5-methoxy-4-((2R,3R)-2-methyl-3-(3-methylbut-2-enyl)oxiran-2-yl)-1-oxaspiro[2.5]octan-6-yl 6-methyl-2,6-diazaspiro[3.3]heptane-2-carboxylate]		1.8%	> 7.30	
CNC(=O)[C@H]1[C@@H]2CN(C(=O)O[C@@H]3CC[C@]4(CO4)[C@@H]([C@@]4(C)O[C@@H]4CC=C(C)C)[C@@H]3OC)C[C@@H]21 [Example 32, (1R,5S,6R)-(3R,4S,5S,6R)-5-methoxy-4-((2R,3R)-2-methyl-3-(3-methylbut-2-en-1-yl)oxiran-2-yl)-1-oxaspiro[2.5]octan-6-yl 6-(methylcarbamoyl)-3-azabicyclo[3.1.0]hexane-3-carboxylate]		4%	6.30 to 7.30	
CO[C@@H]1[C@H](OC(=O)NC2CC3(CCN(C)C3)C2)CC[C@]2(CO2)[C@H]1[C@@]1(C)O[C@@H]1CC=C(C)C (stereo partly drawn) [Example 11, (3R,4S,5S,6R)-5-methoxy-4-((2R,3R)-2-methyl-3-(3-methylbut-2-enyl)oxiran-2-yl)-1-oxaspiro[2.5]octan-6-yl 6-methyl-6-azaspiro[3.4]octan-2-ylcarbamate formate]		6%		> 7.30
CO[C@@H]1[C@H](OC(=O)N2CC3(C2)CS(=O)(=O)C3)CC[C@]2(CO2)[C@H]1[C@@]1(C)O[C@@H]1CC=C(C)C [Example 23, (3R,4S,5S,6R)-5-methoxy-4-((2R,3R)-2-methyl-3-(3-methylbut-2-enyl)oxiran-2-yl)-1-oxaspiro[2.5]octan-6-yl 2-thia-6-azaspiro[3.3]heptane 2,2-dioxide-6-carboxylate]		2%		6.30 to 7.30
CO[C@@H]1[C@H](OC(=O)N2C[C@@H]3[C@H](C2)[C@H]3C(N)=O)CC[C@]2(CO2)[C@H]1[C@@]1(C)O[C@@H]1CC=C(C)C [Example 34, (1R,5S,6R)-(3R,4S,5S,6R)-5-methoxy-4-((2R,3R)-2-methyl-3-(3-methylbut-2-en-1-yl)oxiran-2-yl)-1-oxaspiro[2.5]octan-6-yl 6-carbamoyl-3-azabicyclo[3.1.0]hexane-3-carboxylate]		3%	> 7.30	
CO[C@@H]1[C@H](OC(=O)N2CC3(CNC(=O)C3)C2)CC[C@]2(CO2)[C@H]1[C@@]1(C)O[C@@H]1CC=C(C)C [Example 25, (3R,4S,5S,6R)-5-methoxy-4-((2R,3R)-2-methyl-3-(3-methylbut-2-enyl)oxiran-2-yl)-1-oxaspiro[2.5]octan-6-yl 7-oxo-2,6-diazaspiro[3.4]octane-2-carboxylate]		2%		> 7.30
CO[C@@H]1[C@H](OC(=O)N2CC3(CCN(C)CC3)C2)CC[C@]2(CO2)[C@H]1[C@@]1(C)O[C@@H]1CC=C(C)C [Example 8, (3R,4S,5S,6R)-5-methoxy-4-((2R,3R)-2-methyl-3-(3-methylbut-2-enyl)oxiran-2-yl)-1-oxaspiro[2.5]octan-6-yl 7-methyl-2,7-diazaspiro[3.5]nonane-2-carboxylate formate]		6.2%	> 7.30	
CO[C@@H]1[C@H](OC(=O)NC2CC3(CCN(C)CC3)C2)CC[C@]2(CO2)[C@H]1[C@@]1(C)O[C@@H]1CC=C(C)C [Example 7, (3R,4S,5S,6R)-5-methoxy-4-((2R,3R)-2-methyl-3-(3-methylbut-2-enyl)oxiran-2-yl)-1-oxaspiro[2.5]octan-6-yl 7-methyl-7-azaspiro[3.5]nonan-2-ylcarbamate formate]		1.9%	> 7.30	
CO[C@@H]1[C@H](OC(=O)N2C[C@@H]3[C@H](C2)[C@H]3C(=O)N(C)C)CC[C@]2(CO2)[C@H]1[C@@]1(C)O[C@@H]1CC=C(C)C [Example 33, (1R,5S,6R)-(3R,4S,5S,6R)-5-methoxy-4-((2R,3R)-2-methyl-3-(3-methylbut-2-en-1-yl)oxiran-2-yl)-1-oxaspiro[2.5]octan-6-yl 6-(dimethylcarbamoyl)-3-azabicyclo[3.1.0]hexane-3-carboxylate]		13.8%	6.30 to 7.30	
CO[C@@H]1[C@H](OC(=O)N2C[C@H]3CN(C)C[C@H]3C2)CC[C@]2(CO2)[C@H]1[C@@]1(C)O[C@@H]1CC=C(C)C [Example 20, (3aR,6aS)-((3R,4S,5S,6R)-5-methoxy-4-((2R,3R)-2-methyl-3-(3-methylbut-2-enyl)oxiran-2-yl)-1-oxaspiro[2.5]octan-6-yl) 5-methylhexahydropyrrolo[3,4-c]pyrrole-2(1H)-carboxylate formate]		1.4%	> 7.30	
CO[C@@H]1[C@H](OC(=O)N2CCC3(CCN(C)CC3)CC2)CC[C@]2(CO2)[C@H]1[C@@]1(C)O[C@@H]1CC=C(C)C [Example 28, (3R,4S,5S,6R)-5-methoxy-4-((2R,3R)-2-methyl-3-(3-methylbut-2-enyl)oxiran-2-yl)-1-oxaspiro[2.5]octan-6-yl 9-methyl-3,9-diazaspiro[5.5]undecane-3-carboxylate]		8%		
CO[C@@H]1[C@H](OC(=O)N2CCC3(CCN(C)CC3)C2)CC[C@]2(CO2)[C@H]1[C@@]1(C)O[C@@H]1CC=C(C)C [Example 26, (3R,4S,5S,6R)-5-methoxy-4-((2R,3R)-2-methyl-3-(3-methylbut-2-enyl)oxiran-2-yl)-1-oxaspiro[2.5]octan-6-yl 8-methyl-2,8-diazaspiro[4.5]decane-2-carboxylate]		5.6%	> 7.30	
